# Laboratory results: US20050112573A1, “Method of detecting toxic substance” (priority 2001, published 2005)
# System: yeast genes (level of expressed mRNA)
# Experiment: DNA chip analysis of expressed mRNA of yeast genes after 2 h culture with a toxic chemical substance
# Format: cell-based, Saccharomyces cerevisiae S288C
# Details: for The level of expressed mRNA in the presence of chemical substance/ (ratio to absence of chemical substance): stress protein genes, DNA chip; for The level of expressed mRNA in the presence of chemical substance/ in its absence, gene YPR184W: yeast gene YPR184W
# Summary of the method: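 S. cerevisiae S288C grown at 25° C in YPD; toxicant added at log phase at growth-inhibitory, non-lethal levels for 2 h, untreated cells as control. Poly(A) mRNA reverse-transcribed with Cy3/Cy5-dUTP, hybridized to whole-genome chip at 65° C >12 h; value is fluorescence ratio versus untreated.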
smiles,measurement,setting,value
"C[S+](C)[O-] [(15), dimethylsulfoxide]",The level of expressed mRNA in the presence of chemical substance/The level of expressed mRNA in the absence of chemical substance,yeast gene YMR314W,1.2
same,The level of expressed mRNA in the presence of chemical substance/The level of expressed mRNA in the absence of chemical substance,yeast gene YNL006W,0.7
same,The level of expressed mRNA in the presence of chemical substance/The level of expressed mRNA in the absence of chemical substance,yeast gene YNL007C,0.8
same,"The level of expressed mRNA in the presence of chemical substance/ (in its absence), gene YNL025C","yeast gene YNL025C, ratio of DNA chip fluorescence intensity to that without chemical substance",1.4
same,The level of expressed mRNA in the presence of chemical substance/ (ratio to absence of chemical substance),yeast gene YNL064C,0.7
same,"The level of expressed mRNA in the presence of chemical substance/ (ratio to absence), gene YNL073W","yeast gene YNL073W, mitochondria-located protein genes, 2 h culture with chemical",0.7
same,The level of expressed mRNA in the presence of chemical substance/The level of expressed mRNA in the absence of chemical substance,yeast gene YNL093W,0.6
same,"The level of expressed mRNA in the presence of chemical substance/ (in its absence), gene YNL192W","yeast gene YNL192W, ratio of DNA chip fluorescence intensity to that without chemical substance",2.1
same,The level of expressed mRNA in the presence of chemical substance/The level of expressed mRNA in the absence of chemical substance,yeast gene YNL333W,1.0
same,The level of expressed mRNA in the presence of chemical substance/The level of expressed mRNA in the absence of chemical substance,yeast gene YNR010W,0.8
same,The level of expressed mRNA in the presence of chemical substance/The level of expressed mRNA in the absence of chemical substance,yeast gene YNR069C,1.0
same,"The level of expressed mRNA in the presence of chemical substance/ (in its absence), gene YNR072W","yeast gene YNR072W, ratio of DNA chip fluorescence intensity to that without chemical substance",1.8
same,The level of expressed mRNA in the presence of chemical substance/ (ratio to absence of chemical substance),yeast gene YNR076W,1.1
same,The level of expressed mRNA in the presence of chemical substance/The level of expressed mRNA in the absence of chemical substance,yeast gene YOL013C,2.7
same,"The level of expressed mRNA in the presence of chemical substance/ (ratio to absence), gene YOL096C","yeast gene YOL096C, mitochondria-located protein genes, 2 h culture with chemical",1.0
same,"The level of expressed mRNA in the presence of chemical substance/ (in its absence), gene YOL096C","yeast gene YOL096C, ratio of DNA chip fluorescence intensity to that without chemical substance",1.0
same,"The level of expressed mRNA in the presence of chemical substance/ (in its absence), gene YOL108C","yeast gene YOL108C, ratio of DNA chip fluorescence intensity to that without chemical substance",1.5
same,"The level of expressed mRNA in the presence of chemical substance/ (in its absence), gene YOL116W","yeast gene YOL116W, ratio of DNA chip fluorescence intensity to that without chemical substance",0.7
same,The level of expressed mRNA in the presence of chemical substance/ (ratio to absence of chemical substance),yeast gene YOL161C,1.1
same,The level of expressed mRNA in the presence of chemical substance/The level of expressed mRNA in the absence of chemical substance,yeast gene YOL164W,1.0
same,The level of expressed mRNA in the presence of chemical substance/ (ratio to absence of chemical substance),yeast gene YOR008C,0.9
same,The level of expressed mRNA in the presence of chemical substance/ (ratio to absence of chemical substance),yeast gene YOR009W,0.6
same,The level of expressed mRNA in the presence of chemical substance/ (ratio to absence of chemical substance),yeast gene YOR010C,0.6
same,The level of expressed mRNA in the presence of chemical substance/The level of expressed mRNA in the absence of chemical substance,yeast gene YOR036W,1.2
same,"The level of expressed mRNA in the presence of chemical substance/ (in its absence), gene YOR103C","yeast gene YOR103C, ratio of DNA chip fluorescence intensity to that without chemical substance",1.4
same,The level of expressed mRNA in the presence of chemical substance/The level of expressed mRNA in the absence of chemical substance,yeast gene YOR117W,1.4
same,The level of expressed mRNA in the presence of chemical substance/The level of expressed mRNA in the absence of chemical substance,yeast gene YOR124C,1.3
same,The level of expressed mRNA in the presence of chemical substance/The level of expressed mRNA in the absence of chemical substance,yeast gene YOR132W,1.5
same,The level of expressed mRNA in the presence of chemical substance/The level of expressed mRNA in the absence of chemical substance,yeast gene YOR157C,1.9
same,"The level of expressed mRNA in the presence of chemical substance/ (in its absence), gene YOR180C","yeast gene YOR180C, ratio of DNA chip fluorescence intensity to that without chemical substance",1.1
same,The level of expressed mRNA in the presence of chemical substance/The level of expressed mRNA in the absence of chemical substance,yeast gene YOR181W,3.4
same,The level of expressed mRNA in the presence of chemical substance/The level of expressed mRNA in the absence of chemical substance,yeast gene YOR185C,1.0
same,"The level of expressed mRNA in the presence of chemical substance/ (in its absence), gene YOR251C","yeast gene YOR251C, ratio of DNA chip fluorescence intensity to that without chemical substance",0.6
same,The level of expressed mRNA in the presence of chemical substance/The level of expressed mRNA in the absence of chemical substance,yeast gene YOR259C,1.3
same,The level of expressed mRNA in the presence of chemical substance/The level of expressed mRNA in the absence of chemical substance,yeast gene YOR261C,1.3
same,The level of expressed mRNA in the presence of chemical substance/The level of expressed mRNA in the absence of chemical substance,yeast gene YOR288C,1.8
same,"The level of expressed mRNA in the presence of chemical substance/ (ratio to absence), gene YOR316C","yeast gene YOR316C, mitochondria-located protein genes, 2 h culture with chemical",1.5
same,"The level of expressed mRNA in the presence of chemical substance/ (in its absence), gene YOR348C","yeast gene YOR348C, ratio of DNA chip fluorescence intensity to that without chemical substance",1.6
same,The level of expressed mRNA in the presence of chemical substance/The level of expressed mRNA in the absence of chemical substance,yeast gene YOR355W,3.2
same,"The level of expressed mRNA in the presence of chemical substance/ (in its absence), gene YOR363C","yeast gene YOR363C, ratio of DNA chip fluorescence intensity to that without chemical substance",1.1
same,The level of expressed mRNA in the presence of chemical substance/The level of expressed mRNA in the absence of chemical substance,yeast gene YOR383C,1.1
same,"The level of expressed mRNA in the presence of chemical substance/ (ratio to absence), gene YPL040C","yeast gene YPL040C, mitochondria-located protein genes, 2 h culture with chemical",1.1
same,The level of expressed mRNA in the presence of chemical substance/ (ratio to absence of chemical substance),yeast gene YPL059W,1.0
same,The level of expressed mRNA in the presence of chemical substance/The level of expressed mRNA in the absence of chemical substance,yeast gene YPL089C,2.6
same,The level of expressed mRNA in the presence of chemical substance/The level of expressed mRNA in the absence of chemical substance,yeast gene YPL109C,1.3
same,"The level of expressed mRNA in the presence of chemical substance/ (ratio to absence), gene YPL134C","yeast gene YPL134C, mitochondria-located protein genes, 2 h culture with chemical",1.1
same,The level of expressed mRNA in the presence of chemical substance/ (ratio to absence of chemical substance),yeast gene YPL140C,0.7
same,"The level of expressed mRNA in the presence of chemical substance/ (in its absence), gene YPL148C","yeast gene YPL148C, ratio of DNA chip fluorescence intensity to that without chemical substance",0.6
same,The level of expressed mRNA in the presence of chemical substance/The level of expressed mRNA in the absence of chemical substance,yeast gene YPL149W,0.8
same,The level of expressed mRNA in the presence of chemical substance/The level of expressed mRNA in the absence of chemical substance,yeast gene YPL154C,4.0
same,The level of expressed mRNA in the presence of chemical substance/ (ratio to absence of chemical substance),yeast gene YPL194W,1.4
same,The level of expressed mRNA in the presence of chemical substance/ (ratio to absence of chemical substance),yeast gene YPR005C,2.7
same,The level of expressed mRNA in the presence of chemical substance/The level of expressed mRNA in the absence of chemical substance,yeast gene YPR103W,1.0
same,The level of expressed mRNA in the presence of chemical substance/The level of expressed mRNA in the absence of chemical substance,yeast gene YPR108W,1.3
same,"The level of expressed mRNA in the presence of chemical substance/ (in its absence), gene YPR165W","yeast gene YPR165W, ratio of DNA chip fluorescence intensity to that without chemical substance",0.9
same,"The level of expressed mRNA in the presence of chemical substance/ in its absence, gene YPR184W","energy system protein genes, 2 h culture with the chemical, ratio to control without chemical",1.5
same,"The level of expressed mRNA in the presence of chemical substance/ in its absence, gene YPR184W",ratio of DNA chip fluorescence intensity to that without chemical substance,1.5
